The source of these data is PubChem BioAssay AID1918938 (Molecular Pharmacology Branch, DTP, NCI, 2023).

The subject of this test is 556581-035-R-J1-PDC complex spheroid viability. The test is described as follows: Anticancer human tumor 556581-035-R-J1-PDC patient-derived ovarian carcinoma cell line growth inhibition. The following applies: for viability, T/C: stronger effect = lower value. From the text:
Multicellular complex tumor spheroid response to LSD1 Inhibitor Iadademstat in combination with a variety of drugs and investigational agents in selected tumor cell lines
The current study was undertaken to assess response to LSD1 inhibitors in combination with standard-of-care drugs and investigational agents in solid tumor complex spheroid models as well as in the K-562 leukemia. Complex spheroids include a stromal component modeled by human endothelial cells (HUVEC) and fibroblasts modeled by human mesenchymal stem cells (MSCs). The concentration ranges selected for each drug and investigational agent were based upon clinically achievable concentrations if the clinical Cmax of the agent was known.
Compounds. The drugs and investigational agents used in this study are listed on Table 1. All of the agents used, including staurosporine (NSC755774) and gemcitabine (NSC613327), were obtained from the Developmental Therapeutics Program, NCI. FDA-approved anticancer drugs are available from the NCI at http://dtp.nci.nih.gov/branches/dscb/oncology_drugset_explanation.html. Drugs and investigational agents were >95% pure by proton nuclear magnetic resonance (NMR) and liquid chromatography/mass spectrometry (LC/MS). Stock solutions were prepared at 400x in DMSO, stored at -70 degrees C, and diluted in fresh medium prior to their use. The final concentration of DMSO in cell culture wells never exceeded 0.25% (v/v). The FDA-approved anticancer drug set is available from the Developmental Therapeutics Program at https://dtp.cancer.gov/organization/dscb/obtaining/available_plates.htm. All drugs and investigational agents were tested over a range starting from a high concentration at or near the clinical Cmax and decreasing in half-log increments. If the clinical Cmax for an agent had not been determined, the highest concentration tested was 10 microM.
Cell Lines. The patient-derived cancer cell (PDC) lines: 292921-168-R-J2-PDC, K24384-001-R-PDC, and 521955-158-R2-J5-PDC pancreatic carcinomas, 556581-035-R-J1 ovarian carcinoma, 324938-238-R-J1-PDC, 855422-203-R-J1-PDC and 883617-216-R-J1-PDC urothelial bladder carcinomas, 743489-274-T-PDC renal cell carcinoma, 138582-R-J1 Merkel cell tumor, K60290-347-R-J1 and K57222-313-R-J1-PDC glioblastomas, 653999-131-R-J2-PDC, LG0703-F948-PDC, and 349418-098-R-PDC non-small cell lung carcinomas, 885512-296-R-J2-PDC, 171881-019-R-J1-PDC breast carcinomas and 186277-243-T-J2-PDC and 233499-124-R-J2-PDC colon carcinomas were obtained from the NCI Patient-Derived Models Repository (PDMR, https://pdmr.cancer.gov). The established cell lines NCI/ADR-RES (RRID:CVCL_14520 and OVCAR-5 (RRID:CVCL_1628) ovarian carcinomas, 786-O (RRID:CVCL_1051) and A498 (RRID:CVCL_A498) renal cell carcinoma, NCI-H211 (ATCC, cat. CRL-5824; RRID:CVCL_1529), NCI-H196 (ATCC, cat. CRL-5823, RRID:CVCL_1509), SW 1271 (ATCC, cat. CRL-2177, RRID:CVCL_1716) and NCI-H1876 (ATCC, cat. CRL-5902, RRID:CVCL_1503) small cell lung carcinomas, MDA-MB-231 (RRID:CVCL_0062) and MDA-MB-468 (RRID:CVCL_0419)breast carcinomas (10-12). Pooled donor human umbilical vein endothelial cells (HUVEC, Lonza, cat. CC-2519) and human mesenchymal stem cells (hMSC, Lonza, cat. PT-2501) were purchased from Lonza (Walkersville, MD).
Cell Culture. All cells were maintained in an incubator at 37 degrees C and 5% CO2 with 95% humidity. The PDC lines were cultured according to standard operating procedures established by the NCI PDMR (https://pdmr.cancer.gov). Briefly all PDCs were thawed and cultured in Matrigel-coated flasks prepared with a working solution of 1X Ham's F-12 nutrient mix, without supplementation (Invitrogen, Waltham, MA, cat. 11765054), 100 U/mL penicillin-streptomycin (Invitrogen, cat. 15140122), and 2.5% Matrigel (Corning Inc., Corning, NY, cat. 354248) for the first three passages. […]

SMILES strings stand for the structures. Several values for one entry are separate records, joined by “and”; a condition that tells them apart may be missing. Equal values may be shown once. Bounds are passed on as bounds.
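Further: spheroids exposed to agents for seven days.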

The term viability, T/C denotes the result in the treated group divided by that in the control group, in per cent. In general, IC50 refers to the midpoint of a concentration-inhibition curve. Regarding `CC(C)c1c(-c2ccccc2)nc2c(C#N)c[nH]n2c1=O`, the viability, T/C is 93.8% and 102% (compound 0.0316 µM); 105% and 100% (compound 0.1 µM); 107% (compound 0.316 µM); 91.4% and 101% (compound 1 µM); 75.4% and 90.9% (compound 3.16 µM); 72.7% and 71.9% (compound 10 µM). In addition, the IC50 (curve of compound) was above 10000 nM.

As for `CC1COCCN1c1cc(C2(S(C)(=N)=O)CC2)nc(-c2ccnc3[nH]ccc23)n1` (stereo unspecified), the viability, T/C by setting is: (compound 0.0316 µM) 107%; (compound 0.1 µM) 110% and 94.2%; (compound 0.316 µM) 95.2% and 97.8%; (compound 1 µM) 79.8% and 74.4%; (compound 3.16 µM) 68.2% and 69.1%; (compound 10 µM) 62.3% and 52.5%. Moreover, under “curve of compound”, the 50% inhibitory concentration (IC50) was above 10000 nM.

Consider `COc1ccc([C@@H](O)c2cc(-c3ncnc4cc(N5CCOCC5)ccc34)c(F)cc2Cl)nn1`, for which the viability, T/C is 91.9% and 89.7% (compound 0.0316 µM); 83.5% and 83.2% (compound 0.1 µM); 66.5% and 63.4% (compound 0.316 µM); 50.3% and 48.7% (compound 1 µM); 36.8% and 42.1% (compound 3.16 µM); 29.6% and 27.5% (compound 10 µM). Moreover, the IC50 (curve of compound) was 993 nM and 1070 nM.

In the case of `NC1CC1c1ccc(-c2cccc(O)c2)cc1` (stereo unspecified), the viability, T/C runs as follows: (compound 0.1 µM) 91.5% [middle of 4 runs]; (compound 3.16 µM) 89.2% [middle of 24 runs]. Under “compound alone, run of 02/21/2022”, the IC50 was above 10000 nM.

As for `NC1CCC(NC2CC2c2ccccc2)CC1` (stereo unspecified), the viability, T/C (compound 0.316 µM) is 85.1% and 84.9%. The IC50 (compound alone, run of 02/15/2022) was above 10000 nM.

As to `Nc1ncn(C2CC(O)C(CO)O2)c(=O)n1` (stereo unspecified) + NC1CC1c1ccc(-c2cccc(O)c2)cc1, the IC50 is above 1000 nM (curve of first compound, second compound 0.1 µM); above 1000 nM (curve of first compound, second compound 0.316 µM); above 1000 nM (curve of first compound, second compound 1 µM); above 1000 nM (curve of first compound, second compound 3.16 µM); above 1000 nM (curve of first compound, second compound 10 µM). The viability, T/C was 78.6% (second compound 0.1 µM, first compound 0.00316 µM); 103% (second compound 0.1 µM, first compound 0.01 µM); 76.2% (second compound 0.1 µM, first compound 0.0316 µM); 75.2% (second compound 0.1 µM, first compound 0.1 µM); 72.4% (second compound 0.1 µM, first compound 0.316 µM); 77.8% (second compound 0.1 µM, first compound 1 µM). Moreover, the viability, T/C (second compound 0.316 µM, first compound 0.00316 µM) is 103%; the viability, T/C (second compound 0.316 µM, first compound 0.01 µM) is 101%; the viability, T/C (second compound 0.316 µM, first compound 0.0316 µM) was 77.5%; the viability, T/C (second compound 0.316 µM, first compound 0.1 µM) is 69.5%; the viability, T/C (second compound 0.316 µM, first compound 0.316 µM) is 62.8%; the viability, T/C (second compound 0.316 µM, first compound 1 µM) is 73.5%. Moreover, the viability, T/C by setting is: (second compound 1 µM, first compound 0.00316 µM) 94.4%; (second compound 1 µM, first compound 0.01 µM) 85.3%; (second compound 1 µM, first compound 0.0316 µM) 97.4%; (second compound 1 µM, first compound 0.1 µM) 75.2%; (second compound 1 µM, first compound 0.316 µM) 55.2%; (second compound 1 µM, first compound 1 µM) 72.4%. In addition, the viability, T/C (second compound 3.16 µM, first compound 0.00316 µM) is 108%; the viability, T/C (second compound 3.16 µM, first compound 0.01 µM) is 102%; the viability, T/C (second compound 3.16 µM, first compound 0.0316 µM) is 89.4%; the viability, T/C (second compound 3.16 µM, first compound 0.1 µM) was 54.9%; the viability, T/C (second compound 3.16 µM, first compound 0.316 µM) is 62.3%; the viability, T/C (second compound 3.16 µM, first compound 1 µM) was 69.1%. Besides, the viability, T/C runs as follows: (second compound 10 µM, first compound 0.00316 µM) 98.8%; (second compound 10 µM, first compound 0.01 µM) 116%; (second compound 10 µM, first compound 0.0316 µM) 90.7%; (second compound 10 µM, first compound 0.1 µM) 77.4%; (second compound 10 µM, first compound 0.316 µM) 86%; (second compound 10 µM, first compound 1 µM) 66.9%.
